In ChEMBL document CHEMBL4002634, “Benzoflavones as cholesterol esterase inhibitors: Synthesis, biological evaluation and docking studies” (Bioorg Med Chem Lett, 2017):
Activity calls are given as the source filed them. The rule behind the calls is not given here.

How the values were obtained:
[1] = target: T1, Carboxylic ester hydrolase (Sus scrofa) (UniProt A0A286ZKB1); assay: Inhibition of porcine cholesterol esterase at 25 nM using para-nitrophenyl butyrate as substrate after 5 mins in presence of sodium taurocholate by spectrophotometric method relative to control
T1 sequence (whole entry): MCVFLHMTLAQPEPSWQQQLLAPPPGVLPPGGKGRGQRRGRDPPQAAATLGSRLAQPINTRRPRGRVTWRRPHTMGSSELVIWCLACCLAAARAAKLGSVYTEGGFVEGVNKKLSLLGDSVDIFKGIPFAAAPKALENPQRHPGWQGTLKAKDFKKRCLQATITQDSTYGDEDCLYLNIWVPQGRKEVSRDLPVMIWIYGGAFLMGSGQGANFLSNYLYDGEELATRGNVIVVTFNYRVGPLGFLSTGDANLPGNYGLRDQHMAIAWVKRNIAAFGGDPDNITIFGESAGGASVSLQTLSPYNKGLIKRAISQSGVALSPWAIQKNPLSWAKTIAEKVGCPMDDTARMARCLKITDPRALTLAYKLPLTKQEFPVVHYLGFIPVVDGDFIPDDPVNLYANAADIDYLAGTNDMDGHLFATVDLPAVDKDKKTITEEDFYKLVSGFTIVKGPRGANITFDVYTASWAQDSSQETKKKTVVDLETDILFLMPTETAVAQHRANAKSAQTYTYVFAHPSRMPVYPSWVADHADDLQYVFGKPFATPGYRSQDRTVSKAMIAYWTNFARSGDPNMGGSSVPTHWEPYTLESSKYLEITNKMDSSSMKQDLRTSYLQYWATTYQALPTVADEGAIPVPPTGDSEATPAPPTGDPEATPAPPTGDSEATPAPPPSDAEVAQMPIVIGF

[2] = target: T1, Carboxylic ester hydrolase (Sus scrofa); assay: Mixed-type inhibition of porcine cholesterol esterase at 1 to 50 nM using para-nitrophenyl butyrate as substrate after 5 mins in presence of sodium taurocholate by Line-weaver-Burk plot analysis
[3] = target: T1, Carboxylic ester hydrolase (Sus scrofa); assay: Inhibition of porcine cholesterol esterase at 1 nM using para-nitrophenyl butyrate as substrate after 5 mins in presence of sodium taurocholate by spectrophotometric method relative to control
[4] = target: T1, Carboxylic ester hydrolase (Sus scrofa); assay: Inhibition of porcine cholesterol esterase at 10 nM using para-nitrophenyl butyrate as substrate after 5 mins in presence of sodium taurocholate by spectrophotometric method relative to control
[5] = target: T2, Carboxylic ester hydrolase (Sus scrofa, UniProt A0A286ZKB1); assay: Inhibition of porcine cholesterol esterase using para-nitrophenyl butyrate as substrate after 5 mins in presence of sodium taurocholate by spectrophotometric method
T2 sequence (A0A286ZKB1 whole entry): T1 sequence (whole entry)

[6] = target: T1, Carboxylic ester hydrolase (Sus scrofa); assay: Inhibition of porcine cholesterol esterase at 5 nM using para-nitrophenyl butyrate as substrate after 5 mins in presence of sodium taurocholate by spectrophotometric method relative to control
[7] = target: T1, Carboxylic ester hydrolase (Sus scrofa); assay: Inhibition of porcine cholesterol esterase at 50 nM using para-nitrophenyl butyrate as substrate after 5 mins in presence of sodium taurocholate by spectrophotometric method relative to control

Structure (SMILES) | inhibition [1] [%] | inhibition [2] | inhibition [3] [%] | inhibition [4] [%] | IC50 ([5]; read-out: IC50) [nM] | inhibition [6] [%] | inhibition [7] [%] | IC50 [5]
O=c1cc(-c2cc(F)cc(F)c2)oc2c1ccc1ccccc12 | 96 | Active | 60 | 90 | 0.78 | 80 | 100 | –
O=c1cc(-c2ccc(C(F)(F)F)cc2F)oc2c1ccc1ccccc12 | 62 | – | 33 | 51 | 39 | 43 | 67 | –
O=c1cc(-c2ccc(F)cc2C(F)(F)F)oc2c1ccc1ccccc12 | 55 | – | 28 | 44 | 39.1 | 38 | 63 | –
O=c1cc(-c2ccc(OC(F)(F)F)cc2)oc2c1ccc1ccccc12 | 42 | – | 20 | 35 | – | 26 | 46 | Not Active
